Experiments:
[1] = test system: human cell lines (brain, liver, lung, intestine, kidney, and muscle); assay: Preclinical toxicity study in human cell lines; type: cell-based; settings: all examined human cell lines: brain
Protocol: (§1) A preclinical toxicity study of tyrphostin 9 was conducted in human cell lines (brain, liver, lung, intestine, kidney, and muscle), followed by feeding experiments of C57BL/6 mice. In the in vivo mice experiments, the mice were orally administered tyrphostin 9 during 15 days, at a dose of 0.175 mg/kg/day.

human neutrophils = settings: well known properties; cited from earlier work
[2] = well known properties; cited from earlier work
[3] = test system: overweight, obese, and/or diabetic subjects; assay: Preliminary trial in overweight, obese, and/or diabetic subjects; type: in vivo, human
Protocol: A preliminary trial involving 75 overweight, obese, and/or diabetic subjects of both sexes was carried out over a twenty-month period. Exclusion criteria were: (1) recent significant weight gain, (2) a compromised thermoregulatory system, (3) pregnancy, (4) renal or hepatic failure, (5) use of illegal drugs or drugs that impair the body's heat dissipation mechanisms, (6) serious dysrhythmias, (7) unstable angina pectoris, (8) congestive heart failure, (9) severe cerebrovascular disease, (10) use of a pacemaker, (11) severe pulmonary impairment, (12) anemia, (13) Parkinson's disease, (14) body weight of less than 35 kilograms, (15) extensive psoriasis, (16) repeated episodes of hypoglycemia, (17) cystic fibrosis, (18) spinal cord injury, (19) a hereditary muscle disease, (20) chronic or recurrent venous thrombosis, (21) untreated hyperthyroidism, (22) exercise- or heat-induced angioedema, (23) seizure disorders, (24) schizophrenia, and (25) hypocalcemia.
Medications that reduce sweating, decrease vasodilatation, decrease cardiac output, or induce hypothalamic depression were not taken prior to, during, and immediately after treatment.
Obese participants, aged 16-72, were administered orally one or more hard gelatin capsules per day, each containing 20 mg of active ingredient (i.e., tyrphostin 9) and microcrystalline cellulose. They were instructed not to modify their food intake or to start a course of exercise. […] Afterwards, different dosing schedules were imposed, with refractory individuals being administered two or three capsules per day (i.e., 40 or 60 mg tyrphostin 9 per day), whereas only one capsule per day was administered to all others, who consequently received 20 mg tyrphostin 9 per day throughout the trial.
Participants were also instructed to prevent dehydration by drinking plenty of water and to replenish electrolytes by taking both potassium and magnesium supplements or V-8 Juice or Gatorade. Those receiving two capsules per day were asked to take them at the same time during weeks two and three and then to switch to one in the morning and one at night during weeks four and five. Participants receiving 40 mg tyrphostin 9 per day reported that sweating/body temperature peaked either during night time or day time, depending on whether the two capsules were taken in the morning or at night. […] Obese participants lost on average 4 kg per month, with cumulative weight losses of up to 48 kg.
Diabetic subjects (mostly obese and all presenting Type 2 diabetes mellitus) were similarly treated.

[4] = Shelf life of synthesised tyrphostin 9; type: physicochemical; settings: at 25-35° C.
Protocol: This procedure yields about 800 g (about 95% yield) of a light-yellow microcrystalline solid that melts at 141-142° C. (uncorrected), presents UV absorption maxima at 247 nm and 365 nm and has an Rf value of 0.65 (using benzene as eluant and Merck's TLC silica gel 60 F254 plastic-backed sheets), with only one spot being observed. The mixed melting point of this compound and authentic tyrphostin 9 (acquired from Cayman Chemical) was also 141-142° C. (uncorrected), and its spectroscopic and chromatographic properties were identical to those of the authentic product. This compound is stable, with a shelf life of over 1 year at 25-35° C.; if necessary it may be recrystallized from ethanol.

[5] = test system: differentiation of keratocytes into adipocytes; assay: Inhibition of differentiation into adipocytes; type: cell-based
obese subjects = assay: Synergistic effects of tyrphostin 9 and L-carnitine tartrate in obese subjects; type: in vivo, human; settings: Group A: two capsules per day of 20 mg tyrphostin 9, oral
Protocol: Obese subjects with similar BMI and whose weight had remained essentially constant during the past 30 days were recruited, instructed not to modify their eating habits, food intake, or lifestyle, and randomly and blindly assigned to either treatment Group A, Group B, or Group C.
Subjects in Group A were administered (orally) two capsules per day, each containing 20 mg Tyrphostin 9 plus inert excipient; subjects in Group B were administered (orally) four capsules per day, each containing 5 mg tyrphostin 9 and about 700 mg L-carnitine tartrate; subjects in Group C were administered—in the morning—two capsules, each containing 20 mg Tyrphostin 9 plus inert excipient, and—at night time—four capsules, each containing about 700 mg of L-carnitine tartrate.
After a two week washout period, a new experiment was initiated. Subjects in Group A were orally administered two capsules per day, each containing 20 mg Tyrphostin 9 plus inert excipient, subjects in Group B were given eight capsules per day, each containing 5 mg Tyrphostin 9 plus about 700 mg L-carnitine tartrate, and subjects in Group C were administered—in the morning—two capsules, each containing 20 mg tyrphostin 9 plus inert excipient and, at night, eight capsules each containing about 700 mg L-carnitine tartrate.

C57BL/6 mice = assay: Feeding experiments of C57BL/6 mice, oral tyrphostin 9; type: in vivo
Protocol: as §1

## CC(C)(C)c1cc(C=C(C#N)C#N)cc(C(C)(C)C)c1O [tyrphostin 9]
[1]
  toxicity in human cell lines: low
Human neutrophils
  TNF-induced respiratory burst of human neutrophils: inhibits
[2]
  toxicity (in vitro and in vivo): very low toxicity
[3]; 40 mg per day, weeks two and three simultaneous, weeks four and five split
  sweating/heat sensation, two capsules simultaneously versus one in the morning and one at night: more intense during weeks two and three
[3]; all participants, end of treatment
  slimming (waist circumference and other body measurements): significant reductions in waist circumference
[3]; diabetic subjects (Type 2 diabetes mellitus, mostly obese)
  blood glucose level: significant decrease
[3]; end of first week, one 20 mg capsule per day, oral
  sweating / body temperature reported by participants: most of them reported sweating copiously and/or noticing a distinct increase in body temperature
[3]; end of trial, 20, 40 or 60 mg per day, all participants
  sweating / heat sensation reported by participants: sweating copiously and/or experienced an increased heat sensation
[3]; human, in vivo
  adverse effects: no adverse effects were reported
  muscle mass loss: negligible
  rebound effect: no “rebound effect” was observed
  tolerability of treatment: very well tolerated
[3]; obese and diabetic subjects
  blood lipid values: lower blood lipid values
[3]; obese participants
  cumulative weight losses: up to 48 kg
[3]; obese participants, 20-60 mg per day oral
  average weight loss: 4 kg per month
[4]
  shelf life: over 1 year
[5]
  differentiation of keratocytes into adipocytes: inhibits
Obese subjects
  weight loss after 15 days: about 2 kg
C57BL/6 mice; 0.175 mg/kg/day during 15 days, histochemical and behavioral criteria
  toxicity or inflammation in treated mice: no evidence of toxicity or inflammation
C57BL/6 mice; concomitant with visceral lipid transport
  adipocyte dimensions: reduction
C57BL/6 mice; lean mice
  effect on chow intake: no such effect
C57BL/6 mice; mouse, in vivo
  apoptosis induction, obese versus lean mice: more evident in obese mice than in lean mice
  glycogen storage in hepatocytes: promotes
  visceral lipid transport from adipocytes: promotes
C57BL/6 mice; obese mice grown on a high-fat diet, oral 0.175 mg/kg/day, 15 days
  chow intake curtailed: about 50%
C57BL/6 mice; to a greater extent than taurosporine
  adipocyte apoptosis mediated by caspase-3: promotes

From patent US10849872B2, “Methods and compositions for treating obesity, preventing weight gain, promoting weight loss, promoting slimming, or treating or preventing the development of diabetes” (NAN Global, LLC, priority 2014, dated 2020)
